The test system of one assay is Male Wistar rats. Briefly: Chronic Mild Stress Model of Depression (CMS), sucrose intake. Format: in vivo, rat. To be noted: for Sucrose intake in control animals / Sucrose intake in stressed animals: five weeks; for Sucrose intake in stressed animals: treatment effect. The source says:
CMS uses mild stressors, such as food and water deprivation, cage tilts, changes of cage mates, etc. Over a period of weeks of exposure to the mild stressors, the animals gradually reduce their consumption of a highly preferred sucrose solution which persists (in untreated animals) for several weeks following the cessation of stress. This decreased sensitivity to reward (the sucrose solution) reflects anhedonia, a symptom of a Major Depressive Episode (see for example, Behavioral Pharmacol. 5: Suppl.1, p. 86 (1994) where lithium, carbamazepine and ketoconazole were evaluated in CMS; Psychopharmacology 93:358-364 (1987) where a tricyclic antidepressant was evaluated in CMS; Behavioral Pharmacology: 5:344-350 (1994) where a catechol-O-methyl transferase inhibitor was evaluated in CMS).
Male Wistar rats were brought into the laboratory two months before the start of the experiment at which time they weighed approximately 300 grams. Except as described below, the animals were singly housed, with food and water freely available, and maintained on a 12 hour light/dark cycle (lights on at 8AM) at a temperature of about 22° C.
The animals were first trained to consume a 1% sucrose solution; training consisted of eight 1 hour baseline tests in which sucrose was presented, in the home cage, following 14 hours food and water deprivation; intake was measured by weighing pre-weighed bottles containing the sucrose solution at the end of the test. Subsequently, sucrose consumption was monitored, under similar conditions, at weekly intervals throughout the whole experiment.
On the basis of their sucrose intakes in the final baseline test, the animals were divided into two matched groups. One group of animals was subjected to a chronic mild stress procedure for a period of 9 consecutive weeks. Each week of stress regime consisted of: two periods of food or water deprivation (12 and 14 hour), two periods of 45 degree cage tilt (12 and 14 hour+), two periods of intermittent overnight illumination (lights on and off every 2 hours), two 14 hour periods of soiled cage (200 ml water in sawdust bedding), two 14 hour periods of paired housing, two 14 hour periods of low intensity stroboscopic illumination (150 flashes/min). Stressors were applied continuously throughout the day and night, and scheduled randomly. Control animals were housed in a separate room and had no contract with the stressed animals. They were deprived of food and water for the 14 hours preceding each sucrose test, but otherwise food and water were freely available in the home cage. On the basis of their sucrose intake scores following 3 weeks of stress, both stressed and control animals were each divided further into matched subgroups (n=8), and for subsequent five weeks they received daily administrations of vehicle (1 ml/kg, intraperitoneally (ip)) imipramine (10 mg/kg, ip) or MDL 100,907 (0.002, 0.02 and 0.2 mg/kg orally). All drug injections were in a volume of 1 ml/kg body weight. Drugs were administered at 10AM and sucrose tests were carried out 24 hours following the last drug treatment. After five weeks, the treatments were terminated and after one week of withdrawal a final sucrose test was carried out. Stress was continued throughout the period of treatment and withdrawal.
Results were analyzed by multiple analysis of variance, followed by Fisher's LSD test for post hoc comparisons of means.

Another assay concerns prepulse inhibition. Particulars: cited from earlier work.
The test system of the next assay is myocardial tissue. To be noted: cited from earlier work.
The test system of assay [1] is amphetamine-stimulated locomotion. To be noted: in vivo; cited from earlier work.
Assay [2] has as its system A10 vs. A9 neuronal activity. To be noted: after chronic administration; cited from earlier work.
Setting [3] is: 0.002, 0.02 and 0.2 mg/kg orally daily.

Data on two compounds can be found in patent publication US6455526B1, “Biodegradable polymer encapsulated pharmaceutical compositions and method for preparing the same” (Aventis Pharmaceuticals, Inc., priority 1998, dated 2002).

For the compound `CN(C)CCCN1c2ccccc2CCc2ccccc21` [Imipramine, reference compound], in the assay on Male Wistar rats (10 mg/kg, ip daily), the “Sucrose intake in control animals” value was “no significant effect” and the “Sucrose intake in stressed animals” value was “gradual increase of sucrose intake”. Also, the “Sucrose intake of drug-treated stressed animals vs drug- and saline-treated controls” value in the assay with Male Wistar rats (10 mg/kg, ip, after five weeks of treatment) is “no significant differences”. Further, the “Sucrose intake in stressed animals vs Week 0 scores” value in the assay with Male Wistar rats (10 mg/kg, ip, after four weeks of treatment) is listed as “significantly increased”. Moreover, in the assay on Male Wistar rats (10 mg/kg, ip, one week after withdrawal), the “Increase of sucrose intake in stressed animals after withdrawal” value is on record as “maintained at similar level”.

Take `COc1cccc(C(O)C2CCN(CCc3ccc(F)cc3)CC2)c1OC` (stereo not drawn) [MDL 100,907, (+)-α-(2,3-dimethoxyphenyl)-1-[2-(4-fluorophenyl)ethyl]-4-piperidinemethanol]: the “Disrupted PPI (prepulse inhibition)” value in the assay on prepulse inhibition (disruption produced by 5HT agonists in Wistar rats) is on record as “restore disrupted PPI”. In addition, the “5-HT2 agonist-induced deficits in prepulse inhibition and latent inhibition” value in the assay on prepulse inhibition (rat, in vivo) is on record as “reversal”. The “Duration of the action potential of myocardial tissue” value with myocardial tissue is on record as “increases”. The Amphetamine-stimulated locomotion result in assay [1] is given as “blockade”. In addition, in assay [2], the “Effects on A10 vs. A9 neuronal activity” value is reported as “selective effects”. The “Sucrose intake in stressed animals throughout the whole treatment period” value in the assay on Male Wistar rats (0.002 mg/kg orally) is recorded as “no significant effect”. Besides, the “Sucrose solution drunk by stressed animals at end of treatment (Week 5)” value with Male Wistar rats (0.02 mg/kg orally) and with Male Wistar rats (0.2 mg/kg orally) was “comparable to that of vehicle-treated controls” each time. The “Sucrose intake in stressed animals vs initial scores (Week 0)” value is given as “significantly increased” in the assay on Male Wistar rats (0.02 mg/kg orally, after two weeks of treatment) and “significantly increased” in the assay with Male Wistar rats (0.2 mg/kg orally, after three weeks of treatment). In addition, the “Sucrose intake in control animals one week after withdrawal” value in the assay with Male Wistar rats (0.002, 0.02, 0.2 mg/kg orally) was “not significantly changed”. The “Sucrose intake in stressed animals one week after withdrawal” value in the assay on Male Wistar rats (0.002, 0.02, 0.2 mg/kg orally) is on record as “not significantly changed”. For the same compound, in the assay with Male Wistar rats (setting [3]), the “Sucrose intake in control animals” value is reported as “no significant effect”. Moreover, the “Sucrose intake in stressed animals” value with Male Wistar rats (setting [3]) is listed as “gradually reversed the CMS-induced deficit in sucrose intake”.
